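Following 48 hours of exposure in 96-well plates, responses at five concentrations were used to interpolate endpoints linearly. The concentration for full growth arrest is given as TGI.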
What was measured:
Experiment in all cases: inhibition of tumour cell growth, NCI panel, 48 h
M19-MEL melanoma = tested on: M19-MEL melanoma
OVCAR-3 ovarian = tested on: OVCAR-3 ovarian
SK-MEL-28 melanoma = tested on: SK-MEL-28 melanoma
RXF 393 renal = tested on: RXF 393 renal
HOP-62 NSCLC = tested on: HOP-62 NSCLC
MALME-3M melanoma = tested on: MALME-3M melanoma
OVCAR-8 ovarian = tested on: OVCAR-8 ovarian
HOP-18 NSCLC = tested on: HOP-18 NSCLC
KM20L2 colon = tested on: KM20L2 colon
ACHN renal = tested on: ACHN renal
CCRF-CEM leukemia = tested on: CCRF-CEM leukemia
HCT-116 colon = tested on: HCT-116 colon
SF-295 CNS = tested on: SF-295 CNS
HOP-92 NSCLC = tested on: HOP-92 NSCLC
NCI-H460 lung = tested on: NCI-H460 lung
RPMI-8226 leukemia = tested on: RPMI-8226 leukemia
NCI-H226 lung = tested on: NCI-H226 lung
HT29 colon = tested on: HT29 colon
HCC-2998 colon = tested on: HCC-2998 colon
SF-268 CNS = tested on: SF-268 CNS
UO-31 renal = tested on: UO-31 renal
SNB-78 CNS = tested on: SNB-78 CNS
SW-620 colon = tested on: SW-620 colon
DMS 273 small cell lung = tested on: DMS 273 small cell lung
EKVX NSCLC = tested on: EKVX NSCLC
SN12C renal = tested on: SN12C renal
OVCAR-5 ovarian = tested on: OVCAR-5 ovarian
U251 CNS = tested on: U251 CNS
HL-60(TB) leukemia = tested on: HL-60(TB) leukemia
NCI-H23 lung = tested on: NCI-H23 lung
786-0 renal = tested on: 786-0 renal
HCT-15 colon = tested on: HCT-15 colon
MOLT-4 leukemia = tested on: MOLT-4 leukemia
LXFL 529 NSCLC = tested on: LXFL 529 NSCLC
UACC-257 melanoma = tested on: UACC-257 melanoma
LOX IMVI melanoma = tested on: LOX IMVI melanoma
SF-539 CNS = tested on: SF-539 CNS
A549 NSCLC = tested on: A549 NSCLC
XF 498 CNS = tested on: XF 498 CNS
SK-MEL-2 melanoma = tested on: SK-MEL-2 melanoma
SR leukemia = tested on: SR leukemia
COLO 205 colon = tested on: COLO 205 colon
SNB-19 CNS = tested on: SNB-19 CNS
TK-10 renal = tested on: TK-10 renal
UACC-62 melanoma = tested on: UACC-62 melanoma
K-562 leukemia = tested on: K-562 leukemia
SK-MEL-5 melanoma = tested on: SK-MEL-5 melanoma
SNB-75 CNS = tested on: SNB-75 CNS
IGROV1 ovarian = tested on: IGROV1 ovarian
KM12 colon = tested on: KM12 colon
A498 renal = tested on: A498 renal
OVCAR-4 ovarian = tested on: OVCAR-4 ovarian
DLD-1 colon = tested on: DLD-1 colon
DMS 114 small cell lung = tested on: DMS 114 small cell lung
SK-OV-3 ovarian = tested on: SK-OV-3 ovarian
M14 melanoma = tested on: M14 melanoma
CAKI-1 renal = tested on: CAKI-1 renal
NCI-H522 lung = tested on: NCI-H522 lung

Measured: TGI

FC(F)(F)c1ccc2nc(Nc3ccc(Cl)c(Cl)c3)c(-c3ccccc3)nc2c1
not listed: UACC-62 melanoma | K-562 leukemia | SK-MEL-5 melanoma | SNB-75 CNS | IGROV1 ovarian | KM12 colon | A498 renal | OVCAR-4 ovarian | DLD-1 colon | DMS 114 small cell lung | SK-OV-3 ovarian | M14 melanoma | CAKI-1 renal | NCI-H522 lung
> 100 µM: all other assays above

OC(c1ccccc1)(c1ccccc1)c1cccnc1
not listed: RXF 393 renal | HOP-92 NSCLC | HL-60(TB) leukemia | MOLT-4 leukemia | LXFL 529 NSCLC | SR leukemia | NCI-H522 lung
> 100 µM: all other assays above

Cc1cccc(C)c1NC(=O)CCCC(=O)C1CC(=O)CCC1=O (centres undefined)
not listed: HOP-18 NSCLC | CCRF-CEM leukemia | SF-295 CNS | HOP-92 NSCLC | NCI-H460 lung | SW-620 colon | DMS 273 small cell lung | OVCAR-5 ovarian | HL-60(TB) leukemia | LXFL 529 NSCLC | LOX IMVI melanoma | A549 NSCLC | SK-MEL-2 melanoma | COLO 205 colon | TK-10 renal | K-562 leukemia | SK-MEL-5 melanoma | IGROV1 ovarian | KM12 colon | M14 melanoma | CAKI-1 renal
> 100 µM: all other assays above

N#Cc1ccccc1NC(=O)c1ccccc1
not listed: CCRF-CEM leukemia | NCI-H226 lung | HCC-2998 colon | UO-31 renal | HL-60(TB) leukemia | MOLT-4 leukemia | LXFL 529 NSCLC | DMS 114 small cell lung | SK-OV-3 ovarian | M14 melanoma | NCI-H522 lung
> 100 µM: all other assays above
